Test results reported in patent US11285132B2, “Uses of indolinone compounds” (Oncternal Therapeutics, Inc., priority 2016, dated 2022).

What was measured:
MOLM-16 = assay: 72 hr CellTiter-Glo, AML cell line; type: cell-based; conditions: MOLM16
U2932 = assay: 72 hr CellTiter-Glo, DLBCL cell line; type: cell-based; conditions: Homo sapiens
two MCL cell lines = assay: Combination with lenalidomide in MCL cell lines; type: cell-based
Method: (§1) Cell lines were exposed to YK-4-279 or TK-216, alone or in combination with other compounds, for 72 h using a Tecan D300e Digital Dispenser and 96 well plates. Cell proliferation was measured with MTT. Synergy was determined with the Chou-Talalay combination index. Gene expression profiling (GEP) was performed with the Illumina HumanHT 12 Expression BeadChips. In vivo studies were done in NOD-SCID mice and treatments started with 60 mm3 tumor volumes sc.
(§2) Since lenalidomide is active in mantle cell lymphoma (MCL), the synergism of the combination of TK-216 and lenalidomide was confirmed also in two MCL cell lines.

KARPAS422 = assay: Combination with other agents, MTT, Chou-Talalay combination index; type: cell-based
Text: (§3) Y-axis: CI values. In each box-plot, the line in the middle of the box represents the median and the box extends from the 25th to the 75th percentile (interquartile range, IQ); the whiskers extend to the upper and lower adjacent values (i.e., ±1.5 IQ); outside values have been omitted from the figure. CIs for TK-216/rituximab in TMD8, TK-216/rituximab in Karpas422, TK-216/rituximab in OCI-LY-10 are not plotted due to CI values >3. Combinations tested included bendamustine, bortezomib, ibrutinib, idelalisib, lenalidomide, OTX015 (birabresib, CAS No. 202590-98-5), PQR309 (bimiralisib, CAS No. 1225037-39-7 (free base)), selinexor, venetoclax, and vincristine.
as §1

TMD8 = assay: as above; type: cell-based
Text: as §3, §1

SU-DHL-4 = assay: as above; type: cell-based
Text: as §3, §1

[1] = system: myeloid cell lines (HL-60, Kasumi-1, ML-2, MOLM-13, MOLM-16, and THP-1); assay: Viability and apoptosis in myeloid cell lines; type: cell-based
Text: TK216 also had anti-proliferative effects, causes cell cycle arrest, and induces apoptosis in a panel of AML and DLBCL cell lines with deregulated ETS family members. […] In vivo efficacy studies in xenograft models of DLBCL indicated anti-tumor activity consistent with in vitro findings, confirming the utility and efficacy of TK216 in the treatment of AML and DLBCL by targeting the aberrant expression and translocations in the ETS-family of transcription factors, which contribute to the pathogenesis of the disease.

DLBCL cell lines [2] = assay: Apoptosis by cleaved-Caspase 3 detection; type: cell-based; conditions: various concentrations, 18 h
Method: Cells were treated with various concentrations of TK216 for 18 h and apoptosis was assessed by detection of cleaved-Caspase 3.

TMD8 cells xenografts = assay: TMD8 ABC-DLBCL xenograft in NOD-SCID mice; type: in vivo; conditions: 100 mg/Kg, BID
Method: NOD-Scid mice subcutaneously inoculated with TMD8 cells (15×10^6) were split in two groups respectively treated with TK-216 (100 mg/kg, BID, po, n=9) and control vehicle (n=10). In each box-plot, the line in the middle of the box represents the median and the box extends from the 25th to the 75th percentile (interquartile range, IQ); the whiskers extend to the upper and lower adjacent values (i.e., ±1.5 IQ).
56 lymphoma cell lines [27 diffuse large B cell lymphoma (DLBCL); 10 mantle cell lymphoma; 6 marginal zone lymphoma; 5 anaplastic large T-cell lymphoma; 8 others] were exposed to TK-216 increasing doses for 72 h using a Tecan D300e Digital Dispenser and 384 well plates. Cell proliferation was measured with MTT. In vivo study was done in NOD-SCID mice; treatments were started with approximately sc 60 mm3 tumor volumes. Sensitivity was not affected by the lymphoma cell of origin (B vs T; activated B cell type DLBCL versus germinal center type DLBCL) or MYC and TP53 status. There was a non-statistically significant trend for lower sensitivity in cell lines bearing BCL2 chromosomal translocation (P=0.07, DLBCL only; P=0.06, all cell lines).
(§4) The latter synergism could be linked to the previously mentioned negative trend between TK-216 IC50 values and the presence of BCL2 translocation.
as §1

DLBCL cell lines [3] = assay: Combination with other targeted agents, summary over DLBCL cell lines; type: cell-based
Method: as §4, §1, §2

[4] = system: EWS-FLI1 and RNA helicase A; assay: EWS-FLI1 protein interaction (FLI1 immunoprecipitation in A4573); type: binding; conditions: preclinical potency model
Text: (§5) TK216 is a first in class, small molecule that directly binds EWS-FLI1 inhibiting the biological activity of ETS-family transcription factor oncoproteins and is currently under clinical investigation in patients with Ewing sarcoma.
FLI1 was immunoprecipitated following treatment with TK216 or DMSO control in A4573 (see FIG. 2).

Kasumi-1 = assay: 72 hr CellTiter-Glo, AML cell line; type: cell-based; conditions: Homo sapiens
EWS-FLI1 = target: T1, EWS-FLI1 (Homo sapiens, UniProt Q01543+Q01844); assay: EWS-FLI1 / NROB1 reporter-luciferase transcription in COS7 cells; type: cell-based; conditions: COS7 cells transfected with a EWS-FLI1 responsive promoter; read-out: EC50, transcriptional decrease
T1 construct: EWS (part of EWSR1, Q01844); expressed in transfected cells; host or cells: COS7
Text: as §5
TK216 reduced transcriptional activity in COS7 cells co-transfected with EWS-FLI1 and NROB1 reporter-luciferase plasmids which contain EWS-FLI1 DNA-binding sites, as shown in FIG. 3.

T1 sequence (Q01543 220-452 limits assumed, one chain of several): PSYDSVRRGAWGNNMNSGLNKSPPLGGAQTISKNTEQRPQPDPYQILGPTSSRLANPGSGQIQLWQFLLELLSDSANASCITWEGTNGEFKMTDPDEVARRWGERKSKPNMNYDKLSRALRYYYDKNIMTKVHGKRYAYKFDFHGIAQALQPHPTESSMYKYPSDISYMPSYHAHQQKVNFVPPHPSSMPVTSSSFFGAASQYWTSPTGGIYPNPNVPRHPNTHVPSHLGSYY

O=C(CC1(O)C(=O)Nc2c(Cl)ccc(Cl)c21)c1ccc(C2CC2)cc1 (centres unmarked) [TK216, 4,7-Dichloro-3-(2-(4-cyclopropylphenyl)-2-oxoethyl)-3-hydroxyindolin-2-one]
IC50 (MOLM-16): 0.129 µM | IC50 (U2932): 0.127 µM | combination of TK-216 and lenalidomide (two MCL cell lines): synergism | effect of TK216 in combination with OTX015 (KARPAS422; KARPAS422, with OTX015): Synergism | effect of TK216 in combination with PQR309 (KARPAS422; KARPAS422, with PQR309): additive effect | effect of TK216 in combination with bendamustine (KARPAS422; KARPAS422, with bendamustine): additive effect | effect of TK216 in combination with idelalisib (KARPAS422; KARPAS422, with idelalisib): Synergism | effect of TK216 in combination with selinexor (KARPAS422; KARPAS422, with selinexor): additive effect | effect of TK216 in combination with venetoclax (KARPAS422; KARPAS422, with venetoclax): Synergism | effect of TK216 in combination with vincristine (KARPAS422; KARPAS422, with vincristine): additive effect | CI values, TK-216/rituximab (KARPAS422; Karpas422, with rituximab, not plotted): > 3 | effect of TK216 in combination with OTX015 (TMD8; with OTX015): additive effect | effect of TK216 in combination with PQR309 (TMD8; with PQR309): additive effect | effect of TK216 in combination with bendamustine (TMD8; with bendamustine): No benefit effects | effect of TK216 in combination with bortezomib (TMD8; with bortezomib): Synergism | effect of TK216 in combination with ibrutinib (TMD8; with ibrutinib): additive effect | effect of TK216 in combination with lenalidomide (TMD8; with lenalidomide): Synergism | effect of TK216 in combination with lidelalisib (TMD8; with lidelalisib): additive effect | CI values, TK-216/rituximab (TMD8; with rituximab, not plotted): > 3 | effect of TK216 in combination with selinexor (TMD8; with selinexor): additive effect | effect of TK216 in combination with venetoclax (TMD8; with venetoclax): Synergism | effect of TK216 in combination with vincristine (TMD8; with vincristine): No benefit effects | effect of TK216 in combination with OTX015 (SU-DHL-4; with OTX015): No benefit effects | effect of TK216 in combination with PQR309 (SU-DHL-4; with PQR309): additive effect | effect of TK216 in combination with bendamustine (SU-DHL-4; with bendamustine): No benefit effects | effect of TK216 in combination with idelalisib (SU-DHL-4; with idelalisib): No benefit effects | effect of TK216 in combination with selinexor (SU-DHL-4; with selinexor): No benefit effects | effect of TK216 in combination with venetoclax (SU-DHL-4; with venetoclax): No benefit effects | effect of TK216 in combination with vincristine (SU-DHL-4; with vincristine): Synergism | cellular viability [1]: decrease in cellular viability | apoptosis of cells ([1]; 48 hours): induced dose-dependent apoptosis | apoptosis (cleaved-Caspase 3) (DLBCL cell lines [2]): induced apoptosis | reduction in tumor volume at D11 (TMD8 cells xenografts; D11, P<0.01 vs control group): four-times | tumor growth compared with control group (TMD8 cells xenografts; n=9): reduction in tumor growth | combination of TK-216 with the BET inhibitor OTX015 (MK-8628) (DLBCL cell lines [3]; with OTX015, DLBCL cell lines): synergism in 2/4 cells and additive effect in 1/4 cells | combination of TK-216 with the immunomodulator lenalidomide (DLBCL cell lines [3]; with lenalidomide, activated B cell type DLBCL): synergism in 2/2 activated B cell type DLBCL | combination of TK-216 with the anti-CD20 monoclonal antibody rituximab (DLBCL cell lines [3]; with rituximab, DLBCL cell lines): synergism in 2/3 cells | combination of TK-216 with the BCL2 inhibitor venetoclax (DLBCL cell lines [3]; with venetoclax, DLBCL cell lines): synergism in 3/4 cells | binding between EWS-FLI1 and RNA helicase A [4]: blocked the binding | IC50 (Kasumi-1): 0.393 µM | EC50 (EWS-FLI1): < 0.1 µM
